Results published in patent US20170209348A1, “BIOPHOTONIC COMPOSITIONS COMPRISING HALOGEN AND USES THEREOF” (KLOX Technologies Inc., priority 2014, published 2017).

Assay: Photobleaching of Eosin Y in carbomer gel under blue light
Type: physicochemical
Details: 109 μg/g Eosin Y, 12% urea peroxide, 200 ppm KI, blue light 5 cm, 10 minutes
Procedure: In this experiment, a first carbomer gel comprising 109 μg/g of Eosin Y and 12% urea peroxide (UP) was prepared. […] The two gels were then illuminated with blue light (5 cm distance) for 10 minutes. The fluorescence was measured and recorded by a spectrophotometer.

In the case of `[I-].[K+]` [KI], the “time taken to photobleach the chromophore” value is reported as “prolonged the time taken to photobleach the chromophore”.
